A short description of data set [1]: Light absorption study of masking solutions with laser radiation (Beer's law, transmission vs. concentration). The format is physicochemical. The note with it: 213 nm laser wavelength; reciprocal of absorption coefficient.
Experimental: Light absorbent studies were carried out using 213 nm radiation produced as the fifth harmonic wavelength of the fundamental 1064 nm wavelength of an Nd:YAG laser, with a pulse duration of 6 ns and repetition rate of 20 Hz. The pulse energy of the laser was monitored using an energy detector and a storage oscilloscope. The energy of the laser was obtained from the amplitude of the voltage signal delivered from the detector.
Beer's Law states that if light is passed through solution, energy is attenuated according to the formula:
Where: αM is the molar absorption coefficient in M^−1 cm^−1
C is the concentration in moles per liter
Ef and Ei are the final and initial pulse energies respectively.
In order to determine the amount of light absorbed (A) by the solution the molar absorption co-efficient is found from the gradient of the log-linear plot of Beer's law.
The absorption coefficient (α cm^−1) can then be calculated by multiplying the molar absorption coefficient by the concentration. Once the absorption coefficient is obtained, the penetration depth can be calculated from the reciprocal of this value.
Readings were taken for BSS maintaining the same dilutions. […] Five random readings were taken for each dilution and the mean calculated, in order to reduce the error from inter-pulse variations. […]
Data set [2] can be described thus: Fluorescence under the incident laser beam. The format is physicochemical. The conditions noted are these: laser beam incident on it. The source says:
This would be a useful property in PTK.

The structures appear in SMILES notation.

In the case of `CC1COc2c(N3CCN(C)CC3)c(F)cc3c(=O)c(C(=O)O)cn1c23` (centres unmarked) [Ofloxacin, 9-fluoro-2,3-dihydro-3-methyl-10-(4-methyl-1-piperazinyl)-7-oxo-7H-pyrido[1,2,3-de][1,4]benzoxazine-6-carboxylic acid], the “Penetration Depth” value in data set [1] is reported as 50.3 μm. Moreover, the “Fluorescence when the laser beam is incident” value in data set [2] is “fluoresces”.

The values are drawn from US20020183725A1, “Masking Agent” (priority 2001, published 2002).
